Measured values reported in patent US7605272B2, “IGF-1R inhibitor” (Kyowa Hakko Kirin Co., Ltd., priority 2005, dated 2009).
Structures can show the parent of a compound that is named as a salt. Where two headings read alike, the source gives them in different places. One block for each molecule: values may come before it.

Legend:
KMS-11 = assay: Cytostatic activity on human multiple myeloma cell line KMS-11 (WST-1); format: cell-based; conditions: for inhibition at 1 µM / inhibition at 10 µM: Homo sapiens, KMS-11, 72 h; for inhibition at 1 µM: read-out: cytostatic rate (%) KMS-11 (1 μmol/L); for inhibition at 10 µM: 10 μmol/L, read-out: cytostatic rate (%) KMS-11 (10 μmol/L)
Method in brief: (§1)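 Cytostatic rate is 100 minus % growth relative to DMSO-only wells (100%) and blank wells (0%), read by WST-1 absorbance at 450/690 nm after 2 h. Compound at 1 or 10 μmol/L final was applied for 72 h at 37 °C to cells seeded 24 h earlier.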

NCI-H929 = assay: Cytostatic activity on human multiple myeloma cell line NCI-H929 (WST-1); format: cell-based; conditions: for inhibition at 1 µM / inhibition at 10 µM: Homo sapiens, NCI-H929, 72 h; for inhibition at 1 µM: read-out: cytostatic rate (%) H929 (1 μmol/L); for inhibition at 10 µM: 10 μmol/L, read-out: cytostatic rate (%) H929 (10 μmol/L)
Method in brief: as §1

IGF-1R = target: T1, IGF-1R (Homo sapiens, UniProt P08069); assay: IGF-1R inhibitory activity (kinase reaction, time-resolved fluoroimmunoassay); format: biochemical; conditions: test compound 10 μmol/L
T1 construct: purchased Upstate Co. 14-465
Method in brief: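 Compounds were tested at a single 10 μmol/L concentration. Each was incubated with recombinant IGF-1R (200 μg/L), 10 mmol/L ATP, MgCl2/MnCl2 and Na3VO4 (pH 7.5) on immobilized poly(Glu-Tyr) peptide for 30 min at 24° C. Eu-anti-phosphotyrosine time-resolved fluorescence (340/615 nm) gave relative activity against no-compound and no-enzyme wells, reported as % inhibition.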

[1] = IGF-1R active recombinant enzyme
[2] = KMS-11 cells, test compound 1 μmol/L, WST-1
[3] = NCI-H929 cells, test compound 1 μmol/L, WST-1

T1 sequence (P08069 959-1367 limits assumed): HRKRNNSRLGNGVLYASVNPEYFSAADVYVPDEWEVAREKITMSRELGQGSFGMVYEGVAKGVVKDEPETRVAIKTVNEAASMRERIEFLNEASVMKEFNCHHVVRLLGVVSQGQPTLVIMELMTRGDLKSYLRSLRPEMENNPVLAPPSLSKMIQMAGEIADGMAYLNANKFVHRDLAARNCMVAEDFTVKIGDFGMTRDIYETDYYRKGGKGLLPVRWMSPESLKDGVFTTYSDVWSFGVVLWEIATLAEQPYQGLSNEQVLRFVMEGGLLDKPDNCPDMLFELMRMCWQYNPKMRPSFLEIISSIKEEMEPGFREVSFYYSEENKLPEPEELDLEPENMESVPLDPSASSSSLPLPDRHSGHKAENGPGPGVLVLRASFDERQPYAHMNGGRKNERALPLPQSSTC

SMILES: CCCS(=O)(=O)NCCOc1ccc(/C=C/c2n[nH]c3ccccc23)c(NC(=O)c2sccc2C)c1OC [Compound 338, (E)-N-{6-[2-(1H-indazol-3-yl)vinyl]-2-methoxy-3-[2-(propylsulfonylamino)ethoxy]phenyl}-3-methylthiophene-2-carboxamide]
inhibition at 1 µM (KMS-11; [2]): 122% | inhibition at 1 µM (NCI-H929; [3]): 120% | inhibition at 10 µM (IGF-1R; [1]): 99%

SMILES: COC1CCN(C(=O)c2ccc(/C=C/c3n[nH]c4ccccc34)c(N3C(=O)c4cccc(N)c4C3=O)c2)CC1 [Compound 325]
cytostatic rate (%) KMS-11 (1 μmol/L) (KMS-11; [2]): 100.1% | cytostatic rate (%) H929 (1 μmol/L) (NCI-H929; [3]): 118.4% | inhibitory activity (%) at 10 μmol/L (IGF-1R; [1]): 100.2%

SMILES: CN(C)c1cccc(C(=O)Nc2ccccc2/C=C/c2n[nH]c3ccccc23)c1 [Compound 27, (E)-3-dimethylamino-N-{2-[2-(1H-indazol-3-yl)vinyl]phenyl}benzamide]
inhibition at 10 µM (KMS-11; 72 hours): 114% | inhibition at 10 µM (NCI-H929; 72 hours): 119% | inhibition at 10 µM (IGF-1R; [1]): 99.3%

SMILES: Cc1c(C(=O)Nc2ccccc2/C=C/c2n[nH]c3ccccc23)sc2ccc(Cl)cc12 [Compound 58, (E)-5-chloro-N-{2-[2-(1H-indazol-3-yl)vinyl]phenyl}-3-methylbenzo[b]thiophene-2-carboxamide]
inhibition at 10 µM (KMS-11; 72 hours): 119% | inhibition at 10 µM (NCI-H929; 72 hours): 69.8% | inhibition at 10 µM (IGF-1R; [1]): 86%

SMILES: COc1c(OCC(=O)N2CCN(C)CC2)ccc(/C=C/c2n[nH]c3ccccc23)c1NC(=O)c1sccc1C [Compound 333, (E)-N-{6-[2-(1H-indazol-3-yl)vinyl]-2-methoxy-3-[2-(4-methylpiperazin-1-yl)-2-oxoethoxy]phenyl}-3-methylthiophene-2-carboxamide]
inhibition at 1 µM (KMS-11; [2]): 119% | inhibition at 1 µM (NCI-H929; [3]): 118% | inhibition at 10 µM (IGF-1R; [1]): 109%

SMILES: C(=C\c1n[nH]c2ccccc12)/c1ccccc1OCCc1ccccc1 [Compound 140, (E)-3-{2-[2-(2-phenylethyloxy)phenyl]vinyl}-1H-indazole]
inhibition at 10 µM (KMS-11; 72 hours): 58.9% | inhibition at 10 µM (NCI-H929; 72 hours): 104% | inhibition at 10 µM (IGF-1R; [1]): 92.1%

SMILES: COc1c(OCCN2CCOCC2)ccc(/C=C/c2n[nH]c3ccccc23)c1NC(=O)c1sccc1C [Compound 266, (E)-N-{6-[2-(1H-indazol-3-yl)vinyl]-2-methoxy-3-(2-morpholinoethoxy)phenyl}-3-methylthiophene-2-carboxamide]
inhibition at 1 µM (KMS-11; 1 μmol/L, 72 hours): 131% | inhibition at 1 µM (NCI-H929; 1 μmol/L, 72 hours): 118% | inhibition at 10 µM (IGF-1R; [1]): 103%

SMILES: CC(=O)Nc1ccccc1/C=C/c1n[nH]c2ccccc12 [Compound 9, (E)-N-{2-[2-(1H-indazol-3-yl)vinyl]phenyl}acetamide]
inhibition at 10 µM (KMS-11; 72 hours): 99.8% | inhibition at 10 µM (NCI-H929; 72 hours): 59% | inhibition at 10 µM (IGF-1R; [1]): 74.3%

SMILES: Cc1ccc(C(=O)Nc2ccccc2/C=C/c2n[nH]c3ccccc23)s1 [Compound 40, (E)-N-{2-[2-(1H-indazol-3-yl)vinyl]phenyl}-5-methylthiophene-2-carboxamide]
inhibition at 10 µM (KMS-11; 72 hours): 108% | inhibition at 10 µM (NCI-H929; 72 hours): 125% | inhibition at 10 µM (IGF-1R; [1]): 98.8%

SMILES: Nc1cccc2c1C(=O)N(c1cc(CN3CCN(CCO)CC3)ccc1/C=C/c1n[nH]c3ccccc13)C2=O [Compound 307, (E)-4-amino-2-{5-[4-(2-hydroxyethyl)piperazin-1-ylmethyl]-2-[2-(1H-indazol-3-yl)vinyl]phenyl}isoindole-1,3-dione]
inhibition at 1 µM (KMS-11; [2]): 110% | inhibition at 1 µM (NCI-H929; [3]): 114% | inhibition at 10 µM (IGF-1R; [1]): 100%

SMILES: Cn1cccc1C(=O)Nc1cc(N(CCO)CCN2CCOCC2)ccc1/C=C/c1n[nH]c2ccccc12 [Compound 308, (E)-{5-[N-(2-hydroxyethyl)-2-(morpholin-4-yl)ethylamino]-2-[2-(1H-indazol-3-yl)vinyl]phenyl}-1-methyl-1H-pyrrole-2-carboxamide]
cytostatic rate (%) KMS-11 (1 μmol/L) (KMS-11; [2]): 128.1% | cytostatic rate (%) H929 (1 μmol/L) (NCI-H929; [3]): 118.3% | inhibitory activity (%) at 10 μmol/L (IGF-1R; [1]): 99.1%

SMILES: Nc1ccc2c(c1)C(=O)N(c1ccccc1/C=C/c1n[nH]c3ccccc13)C2=O [Compound 193, (E)-5-amino-2-{2-[2-(1H-indazol-3-yl)vinyl]phenyl}isoindole-1,3-dione]
inhibition at 10 µM (KMS-11; 72 hours): 167% | inhibition at 10 µM (NCI-H929; 72 hours): 124% | inhibition at 10 µM (IGF-1R; [1]): 100%

SMILES: COCCN(CCN(C)C)c1ccc(/C=C/c2n[nH]c3ccccc23)c(NC(=O)c2sccc2C)c1 [Compound 284, (E)-N-{5-[N-(2-dimethylaminoethyl)-2-(methoxyethyl)amino]-2-[2-(1H-indazol-3-yl)vinyl]phenyl}-3-methylthiophene-2-carboxamide]
cytostatic rate (%) KMS-11 (1 μmol/L) (KMS-11; 1 μmol/L, 72 hours): 130.8% | cytostatic rate (%) H929 (1 μmol/L) (NCI-H929; 1 μmol/L, 72 hours): 121.2% | inhibitory activity (%) at 10 μmol/L (IGF-1R; [1]): 97.5%

SMILES: Nc1ccc(C(=O)Nc2cc3c(cc2/C=C/c2n[nH]c4ccccc24)OCO3)s1 [Compound 132, (E)-5-amino-N-{6-[2-(1H-indazol-3-yl)vinyl]benzo[1,3]dioxol-5-yl}thiophene-2-carboxamide]
inhibition at 10 µM (KMS-11; 72 hours): 112% | inhibition at 10 µM (NCI-H929; 72 hours): 108% | inhibition at 10 µM (IGF-1R): 98%

SMILES: COCCCN1CCN(Cc2ccc(/C=C/c3n[nH]c4ccccc34)c(N3Cc4c(N)cccc4C3=O)c2)CC1 [Compound 323, (E)-4-amino-2-{2-[2-(1H-indazol-3-yl)vinyl]-5-[4-(3-methoxypropyl)piperazin-1-ylmethyl]phenyl}-2,3-dihydroisoindol-1-one]
cytostatic rate (%) KMS-11 (1 μmol/L) (KMS-11; [2]): 73.8% | cytostatic rate (%) H929 (1 μmol/L) (NCI-H929; [3]): 107.6% | inhibitory activity (%) at 10 μmol/L (IGF-1R; [1]): 105.8%

SMILES: Cn1cccc1CC(=O)Nc1ccccc1/C=C/c1n[nH]c2ccccc12 [Compound 73, (E)-N-{2-[2-(1H-indazol-3-yl)vinyl]phenyl}-2-(1-methyl-1H-pyrrole-2-yl)acetamide]
inhibition at 10 µM (KMS-11; 72 hours): 90.4% | inhibition at 10 µM (NCI-H929; 72 hours): 80% | inhibition at 10 µM (IGF-1R; [1]): 88%

More lines, main results first:

inhibition at 10 µM (IGF-1R; [1]): 98.2%
SMILES: COCCN1CCN(c2ccc(/C=C/c3n[nH]c4ccccc34)c(NC(=O)c3sccc3C)c2)CC1 [Compound 279, (E)-N-{2-[2-(1H-indazol-3-yl)vinyl]-5-[4-(2-methoxyethyl)piperazin-1-yl]phenyl}-3-methylthiophene-2-carboxamide]
inhibition at 1 µM (KMS-11; 1 μmol/L, 72 hours): 111% | inhibition at 1 µM (NCI-H929; 1 μmol/L, 72 hours): 112%

inhibition at 10 µM (IGF-1R; [1]): 104%
SMILES: Cc1ccsc1C(=O)Nc1cc(CN2CCC(CCO)CC2)ccc1/C=C/c1n[nH]c2ccccc12 [Compound 311, (E)-N-{5-[4-(2-hydroxyethyl)piperidin-1-ylmethyl]-2-[2-(1H-indazol-3-yl)vinyl]phenyl}-3-methylthiophene-2-carboxamide]
inhibition at 1 µM (KMS-11; [2]): 111% | inhibition at 1 µM (NCI-H929; [3]): 117%

inhibition at 10 µM (IGF-1R; [1]): 102%
SMILES: COCCN1CCN(Cc2ccc(/C=C/c3n[nH]c4ccccc34)c(NC(=O)c3sccc3C)c2)CC1 [Compound 271, (E)-N-{2-[2-(1H-indazol-3-yl)vinyl]-5-[4-(2-methoxyethyl)piperazin-1-ylmethyl]phenyl}-3-methylthiophene-2-carboxamide]
inhibition at 1 µM (KMS-11; 1 μmol/L, 72 hours): 123% | inhibition at 1 µM (NCI-H929; 1 μmol/L, 72 hours): 119%

inhibition at 10 µM (IGF-1R; [1]): 97.2%
SMILES: Cc1ccsc1C(=O)Nc1cc(C(=O)N2CCN(CCO)CC2)ccc1/C=C/c1n[nH]c2ccccc12 [Compound 281, (E)-N-{5-[4-(2-hydroxyethyl)piperazin-1-ylcarbonyl]-2-[2-(1H-indazol-3-yl)vinyl]phenyl}-3-methylthiophene-2-carboxamide]
inhibition at 1 µM (KMS-11; 1 μmol/L, 72 hours): 115% | inhibition at 1 µM (NCI-H929; 1 μmol/L, 72 hours): 128%

inhibition at 10 µM (IGF-1R; [1]): 100%
SMILES: Cc1ccsc1C(=O)Nc1cc(CN2CCN(C(=O)CO)CC2)ccc1/C=C/c1n[nH]c2ccccc12 [Compound 248, (E)-N-{2-[2-(1H-indazol-3-yl)vinyl]-5-[4-(2-hydroxyacetyl)piperazin-1-ylmethyl]phenyl}-3-methylthiophene-2-carboxamide]
inhibition at 1 µM (KMS-11; 1 μmol/L, 72 hours): 113% | inhibition at 1 µM (NCI-H929; 1 μmol/L, 72 hours): 114%

inhibition at 10 µM (IGF-1R; [1]): 101%
SMILES: Cc1ccsc1C(=O)Nc1cc(C(=O)N2C[C@@H](C)O[C@@H](C)C2)ccc1/C=C/c1n[nH]c2ccccc12 [Compound 223, (E)-N-{2-[2-(1H-indazol-3-yl)vinyl]-5-(cis-2,6-dimethylmorpholin-4-ylcarbonyl)phenyl}-3-methylthiophene-2-carboxamide hydrochloride]
inhibition at 1 µM (KMS-11; 1 μmol/L, 72 hours): 120% | inhibition at 1 µM (NCI-H929; 1 μmol/L, 72 hours): 119%

inhibition at 10 µM (IGF-1R): 94.8%
SMILES: Cc1ccsc1C(=O)Nc1cc(N(C)C)ccc1/C=C/c1n[nH]c2ccccc12 [Compound 105, (E)-N-{5-dimethylamino-2-[2-(1H-indazol-3-yl)vinyl]phenyl}-3-methylthiophene-2-carboxamide]
inhibition at 10 µM (KMS-11; 72 hours): 120% | inhibition at 10 µM (NCI-H929; 72 hours): 120%

inhibitory activity (%) at 10 μmol/L (IGF-1R; [1]): 100.7%
SMILES: CC(=O)CCN1CCN(Cc2ccc(/C=C/c3n[nH]c4ccccc34)c(NC(=O)c3sccc3C)c2)CC1 [Compound 313, (E)-{2-[2-(1H-indazol-3-yl)vinyl]-5-[4-(3-oxobutyl)piperazin-1-ylmethyl]phenyl}-3-methylthiophene-2-carboxamide]
cytostatic rate (%) KMS-11 (1 μmol/L) (KMS-11; [2]): 107.9% | cytostatic rate (%) H929 (1 μmol/L) (NCI-H929; [3]): 115.2%
